In brackets after ≈: the same amount, converted by molar mass. Non-standard residues stand in square brackets, D forms with d. Residues, ends and D or L forms follow the SMILES beside them. *: point of attachment. Lauroyl = CCCCCCCCCCCC(=O)*
Tests used:
Format in all cases: cell-based
[1] = test system: Staphylococcus aureus ATCC 29213; assay: MIC, NCCLS M7-A6 broth microdilution, cation-adjusted Mueller Hinton broth (Table 9, no superscript); conditions: ATCC 29213
Outline: (§1)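 Broth microdilution in cation-adjusted Mueller Hinton broth with log-phase inoculum at 5×10^5 to 1×10^6 CFU/mL, incubated overnight at 37° C. MIC was the lowest peptide concentration showing no visible turbidity versus the no-peptide control.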

[2] = test system: Salmonella dublin (Lane); assay: MIC, NCCLS M7-A6 broth microdilution (Table 9, no superscript)
Outline: as §1

[3] = test system: Propionibacterium acnes ATCC 6919; assay: MIC, agar dilution method NCCLS M11-A6, Brucella agar, anaerobic (Table 9, superscript c); conditions: ATCC 6919
Outline: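 MIC taken as the lowest peptide level giving no colonies on the plate. Plates were inoculated to 1.5×10^8 CFU/milliliter, then kept anaerobically at 37° C. for 48-96 hours; method follows NCCLS M11-A6.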

[4] = test system: Candida albicans ATCC 18804; assay: MIC in yeasts, NCCLS M27-A2 broth microdilution, RPMI 1640 (Table 9, letter e); conditions: ATCC 18804
Method: Briefly, RPMI 1640 supplemented with glutamine and phenol red as a pH indicator was used in the broth microdilution method. A 96-well plate was inoculated so that the final inoculum of yeast for each well contained between 0.5×10^3 and 2.5×10^3 CFU/milliliter. […] Plates were incubated for 24 to 48 hours at 37° C. The lowest concentration of peptide that contained no visible growth was determined as the MIC. MIC values that utilized this method of MIC determination are indicated in Table 9 with a subscript letter “e.” “Peptide Number” corresponds to peptide compositions and corresponding designations in Table 3.

[5] = test system: Escherichia coli ATCC 25922; assay: MIC, NCCLS M7-A6 broth microdilution (Table 9, no superscript); conditions: ATCC 25922
Outline: as §1

[6] = test system: Pseudomonas aeruginosa ATCC 27853; assay: as above; conditions: ATCC 27853
Outline: as §1

[7] = test system: Staphylococcus epidermidis ATCC 12228; assay: as above; conditions: ATCC 12228
Outline: as §1

SMILES | MIC S. aureus [1] [µg/mL] | MIC S. dublin [2] [µg/mL] | MIC P. acnes [3] [c ug/mL] | MIC C. albicans [4] [e ug/mL] | MIC E. coli [5] [µg/mL] | MIC P. aeruginosa [6] [µg/mL] | MIC S. epidermidis [7] [µg/mL]
CSCC[C@H](NC(=O)[C@H](Cc1ccccc1)NC(=O)[C@H](CC(N)=O)NC(=O)[C@H](CCCNC(=N)N)NC(=O)[C@H](CO)NC(=O)[C@H](Cc1c[nH]c2ccccc12)NC(=O)[C@H](CC(=O)O)NC(=O)[C@H](CCCNC(=N)N)NC(=O)[C@H](Cc1c[nH]c2ccccc12)NC(=O)[C@H](CCCNC(=N)N)NC(=O)[C@H](CO)NC(=O)[C@H](CCCNC(=N)N)NC(=O)CNC(=O)[C@@H](NC(=O)[C@H](CCCNC(=N)N)NC(=O)[C@H](CO)NC(=O)[C@@H](NC(=O)[C@H](CCCNC(=N)N)NC(=O)[C@@H](NC(=O)[C@H](C)NC(=O)[C@H](C)NC(=O)[C@H](CCCNC(=N)N)NC(=O)[C@H](CCCNC(=N)N)NC(=O)[C@H](CCCNC(=N)N)NC(=O)[C@@H](N)CCCNC(=N)N)[C@@H](C)O)C(C)C)[C@@H](C)O)C(=O)N[C@@H](CCCNC(=N)N)C(=O)N[C@@H](C)C(=O)N[C@@H](C)C(=O)N[C@@H](CCCNC(=N)N)C(=O)N[C@@H](CCCNC(=N)N)C(=O)N[C@@H](CCCNC(=N)N)C(=O)N[C@@H](CCCNC(=N)N)C(N)=O [Peptide 12] (H-RRRRAATRVSRTGRSRWRDWSRNFMRAARRRR-NH2) | 16 (≈ 3.86 µM) | 32 (≈ 7.72 µM) | >64 | >64 |  |  | 
CCCCCCCCCCCC(=O)N[C@H](C(=O)N[C@@H](CCCNC(=N)N)C(=O)N[C@H](C(=O)N[C@@H](C)C(=O)N[C@@H](CCCNC(=N)N)C(=O)N[C@H](C(=O)NCC(=O)N[C@@H](CCCNC(=N)N)C(=O)N[C@@H](CO)C(=O)N[C@@H](CCCNC(=N)N)C(=O)N[C@@H](Cc1c[nH]c2ccccc12)C(=O)N[C@@H](CCCNC(=N)N)C(=O)N[C@@H](CC(=O)O)C(=O)N[C@@H](Cc1c[nH]c2ccccc12)C(=O)N[C@@H](C)C(=O)N[C@@H](CCCNC(=N)N)C(=O)N[C@@H](CC(N)=O)C(=O)N[C@@H](Cc1ccccc1)C(=O)N[C@@H](CCSC)C(=O)N[C@@H](CCCNC(=N)N)C(N)=O)[C@@H](C)O)C(C)C)[C@@H](C)O [Peptide 70] (Lauroyl-TRVARTGRSRWRDWARNFMR-NH2) | 8 (≈ 2.9 µM) | 32 (≈ 11.6 µM) | 64 | 8 | 4 (≈ 1.45 µM) | 8 (≈ 2.9 µM) | 1 (≈ 0.362 µM)
CCCCCCCCCCCC(=O)N[C@@H](CCCNC(=N)N)C(=O)N[C@@H](CO)C(=O)N[C@@H](CCCNC(=N)N)C(=O)N[C@@H](Cc1c[nH]c2ccccc12)C(=O)N[C@@H](CCCNC(=N)N)C(=O)N[C@@H](CC(=O)O)C(=O)N[C@@H](Cc1c[nH]c2ccccc12)C(=O)N[C@@H](CO)C(=O)N[C@@H](CCCNC(=N)N)C(=O)N[C@@H](CC(N)=O)C(=O)N[C@@H](Cc1ccccc1)C(=O)N[C@@H](CCSC)C(=O)N[C@@H](CCCNC(=N)N)C(N)=O [Peptide 87, Lauryl-RSRWRDWSRNFMR-NH2] (Lauroyl-RSRWRDWSRNFMR-NH2) | 4 (≈ 1.97 µM) | 8 (≈ 3.93 µM) | >64 | 16 |  |  | 
CCCCCCCCCCCC(=O)N[C@@H](CCCNC(=N)N)C(=O)N[C@@H](Cc1c[nH]c2ccccc12)C(=O)N[C@@H](CCCNC(=N)N)C(=O)N[C@@H](CC(=O)O)C(=O)N[C@@H](CC(C)C)C(=O)N[C@@H](C)C(=O)N[C@@H](CCCNC(=N)N)C(N)=O [Peptide 241, Lauryl-RWRDLAR-NH2] (Lauroyl-RWRDLAR-NH2) | 4 (≈ 3.47 µM) | 16 (≈ 13.9 µM) | 64 |  | 32 (≈ 27.7 µM) | 32 (≈ 27.7 µM) | 8 (≈ 6.94 µM)
CCCCCCCCCCCC(=O)N[C@@H](CCCNC(=N)N)C(=O)N[C@@H](Cc1c[nH]c2ccccc12)C(=O)N[C@@H](CCCNC(=N)N)C(=O)N[C@@H](C)C(=O)N[C@@H](CC(C)C)C(=O)N[C@@H](C)C(=O)N[C@@H](CCCNC(=N)N)C(N)=O [Peptide 242, Lauryl-RWRALAR-NH2] (Lauroyl-RWRALAR-NH2) | 2 (≈ 1.8 µM) | 32 (≈ 28.8 µM) | 64 |  | 16 (≈ 14.4 µM) | 8 (≈ 7.21 µM) | 2 (≈ 1.8 µM)
CCCCCCCCCCCC(=O)N[C@@H](CCCNC(=N)N)C(=O)N[C@@H](Cc1c[nH]c2ccccc12)C(=O)N[C@@H](CCCNC(=N)N)C(=O)N[C@@H](C)C(=O)N[C@H](C(=O)N[C@@H](C)C(=O)N[C@@H](CCCNC(=N)N)C(N)=O)C(C)C [Peptide 243, Lauryl-RWRAVAR-NH2] (Lauroyl-RWRAVAR-NH2) | 4 (≈ 3.65 µM) | >64 | >64 |  | 32 (≈ 29.2 µM) | >64 | 2 (≈ 1.83 µM)
CCCCCCCCCCCC(=O)N[C@H](CCCNC(=N)N)C(=O)N[C@H](Cc1c[nH]c2ccccc12)C(=O)N[C@H](CCCNC(=N)N)C(=O)N[C@H](C)C(=O)N[C@H](CC(C)C)C(=O)N[C@H](C)C(=O)N[C@H](CCCNC(=N)N)C(N)=O [Peptide 245, Lauryl-rwralar-NH2] (Lauroyl-[dR][dW][dR][dA][dL][dA][dR]-NH2) | 1 (≈ 0.901 µM) | 16 (≈ 14.4 µM) | 8 |  | 8 (≈ 7.21 µM) | 8 (≈ 7.21 µM) | 2 (≈ 1.8 µM)
CCCCCCCCCCCC(=O)N[C@H](CCCNC(=N)N)C(=O)N[C@H](Cc1c[nH]c2ccccc12)C(=O)N[C@H](CCCNC(=N)N)C(=O)N[C@H](C)C(=O)N[C@@H](C(=O)N[C@H](C)C(=O)N[C@H](CCCNC(=N)N)C(N)=O)C(C)C [Peptide 246, Lauryl-rwravar-NH2] (Lauroyl-[dR][dW][dR][dA][dV][dA][dR]-NH2) | 4 (≈ 3.65 µM) | >64 | 32 |  | 32 (≈ 29.2 µM) | >64 | 2 (≈ 1.83 µM)

Source: patent publication US20050282755A1, “Compositions having antimicrobial activity and uses thereof” (priority 2004, published 2005)
